# Test results taken from patent US20230141603A1, “BENZODIAZEPINE DERIVATIVES AS GABA A GAMMA1 PAM” (Hoffmann-La Roche Inc., priority 2021, published 2023).
# Biological target: T1, h-GABAA α1β2γ1 (Homo sapiens, UniProt P14867+Q8N1C3)
# T1 construct: expressed in transfected cells; host or cells: HEK293F cells (ThermoFisher R79007), membranes
# T1 sequence (P14867 28-456): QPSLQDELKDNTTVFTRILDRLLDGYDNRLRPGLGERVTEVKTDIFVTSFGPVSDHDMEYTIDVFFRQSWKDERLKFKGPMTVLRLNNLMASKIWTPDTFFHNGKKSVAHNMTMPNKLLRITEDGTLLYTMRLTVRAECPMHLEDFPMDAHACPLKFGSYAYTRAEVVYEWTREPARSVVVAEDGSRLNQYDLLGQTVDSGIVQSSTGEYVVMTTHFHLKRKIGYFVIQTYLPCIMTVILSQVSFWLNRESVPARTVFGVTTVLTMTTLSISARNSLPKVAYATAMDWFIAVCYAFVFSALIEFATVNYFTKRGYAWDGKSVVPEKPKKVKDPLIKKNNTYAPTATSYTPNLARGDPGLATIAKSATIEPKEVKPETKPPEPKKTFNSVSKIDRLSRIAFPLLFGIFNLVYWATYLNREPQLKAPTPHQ
# T1 sequence (P47870 25-512 partner limits assumed): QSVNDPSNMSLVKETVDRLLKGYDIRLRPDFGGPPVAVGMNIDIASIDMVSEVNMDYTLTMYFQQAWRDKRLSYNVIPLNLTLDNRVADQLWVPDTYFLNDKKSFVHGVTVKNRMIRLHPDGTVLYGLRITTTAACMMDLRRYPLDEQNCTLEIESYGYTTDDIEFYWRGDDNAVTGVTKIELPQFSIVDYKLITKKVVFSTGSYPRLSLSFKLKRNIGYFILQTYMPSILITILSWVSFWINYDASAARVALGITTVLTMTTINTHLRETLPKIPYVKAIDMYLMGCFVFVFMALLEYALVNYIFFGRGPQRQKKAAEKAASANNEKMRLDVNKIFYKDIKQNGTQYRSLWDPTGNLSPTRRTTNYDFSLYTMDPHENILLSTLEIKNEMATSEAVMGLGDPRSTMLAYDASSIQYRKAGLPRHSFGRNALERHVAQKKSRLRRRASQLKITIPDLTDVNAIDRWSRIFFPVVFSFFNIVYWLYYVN
# T1 sequence (Q8N1C3 36-465): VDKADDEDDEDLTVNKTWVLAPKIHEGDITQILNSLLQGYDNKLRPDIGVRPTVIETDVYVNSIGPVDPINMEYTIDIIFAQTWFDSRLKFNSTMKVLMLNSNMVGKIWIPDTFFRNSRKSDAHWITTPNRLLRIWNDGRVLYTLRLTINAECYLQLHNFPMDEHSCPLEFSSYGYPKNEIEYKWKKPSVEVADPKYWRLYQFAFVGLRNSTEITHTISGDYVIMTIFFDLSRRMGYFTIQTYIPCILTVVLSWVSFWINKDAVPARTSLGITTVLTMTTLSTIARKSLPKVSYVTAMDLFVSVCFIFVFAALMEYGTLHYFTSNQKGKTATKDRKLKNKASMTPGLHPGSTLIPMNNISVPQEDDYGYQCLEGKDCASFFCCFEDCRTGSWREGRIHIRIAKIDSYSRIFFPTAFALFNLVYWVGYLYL
# Experiment: Radioligand binding assay, [3H]RO7239181 competition, HEK293F membranes
# Protocol: The affinity of compounds at GABAA γ1 subunit-containing receptors was measured by competition for [^3H]RO7239181 (67.3 Ci/mmol; Roche) binding to membranes from HEK293F cells (ThermoFisher R79007) expressing human (transiently transfected) receptors of composition […], α2β2γ1, α1β2γ1.
# Harvested pellets from HEK293F cells expressing the different GABAA receptor subtypes were resuspended in Mannitol Buffer pH 7.2-7.4 (Mannitol 0.29M, Triethylamine 10 mM, Acetic acid 10 mM, EDTA 1 mM plus protease inhibitors (20 tablets Complete, Roche Diagnostics Cat. No. 05 056 489 001 per liter)), washed two times and then resuspended at 1:10 to 1:15 dilution in the same buffer. Cell disruption was performed by stirring the suspension in a Parr vessel #4637 at 435 psi for 15 minutes, and then the suspensions were centrifuged at 1000×g for 15 minutes at 4° C. (Beckman Avanti J-HC; rotor JS-4.2). The supernatant (S1) was transferred in a 21 Schott flask and the pellet (P1) was resuspended with Mannitol Buffer up to 175 ml. The resuspended pellet was transferred into a 250 ml Corning centrifugal beaker and centrifuged at 1500×g for 10 minutes at 4° C. (Beckman Avanti J-HC; rotor JS-4.2). The supernatant (S1) was then transferred in the 21 Schott flask and the pellet was discarded. The supernatants (S1) were centrifuged in 500 ml Beckman polypropylene centrifugal beaker at 15′000×g for 30 minutes at 4° C. (Beckman Avanti J-20 XP; rotor JLA-10.500). The pellet (P2) was resuspended with Mannitol Buffer 1:1 and frozen at −80° C. The supernatant (S2) was centrifuged in 100 ml Beckman polypropylene centrifugal tubes at 48000×g for 50 minutes at 4° C. (Beckman Avanti J-20 XP; rotor JA-18). The supernatant (S3) was discarded and the pellet (P3) was resuspended with 1:1 Mannitol Buffer. The P2 and P3 protein concentration was determined with the BIORAD Standard assay method with bovine serum albumin as standard and measured on the NANO-Drop 1000. The membrane suspension was aliquots (500 μl per tube) and stored at −80° C. until required. Membrane homogenates were resuspended and polytronised (Polytron PT1200E Kinematica AG) in Potassium Phosphate 10 mM, KCl 100 mM binding buffer at pH 7.4 to a final assay concentration determined with a previous experiment.
# Assays were incubated to equilibrium for 1 hour at 4° C. and then, membranes were filtered onto unifilter (96-well white microplate with bonded GF/C filters preincubated 20-50 minutes in 0.3% Polyethylenimine) with a Filtermate 196 harvester (Packard BioScience) and washed 4 times with cold Potassium Phosphate 10 mM pH 7.4, KCl 100 mM binding buffer. After drying, filter-retained radioactivity was detected by liquid scintillation counting. Ki values were calculated using Excel-Fit (Microsoft) and are the means of two determinations.
row,SMILES,Ki
1,"Cc1nnc2n1-c1ccc(C(F)F)c(Cl)c1C(c1c(F)cccc1F)=NC2 [Example 25, 7-chloro-8-(difluoromethyl)-6-(2,6-difluorophenyl)-1-methyl-4H-[1,2,4]triazolo[4,3-a][1,4]benzodiazepine]",68.6 nM
2,"O=c1[nH]nc2n1-c1ccc(Br)c(Cl)c1C(c1ccccc1F)=NC2 [Example 26, 8-bromo-7-chloro-6-(2-fluorophenyl)-2,4-dihydro-[1,2,4]triazolo[4,3-a][1,4]benzodiazepin-1-one]",24.1 nM
3,"Fc1ccccc1C1=NCc2nnc(-c3cccnn3)n2-c2ccc(C(F)(F)F)c(Cl)c21 [Example 27, 7-chloro-6-(2-fluorophenyl)-1-pyridazin-3-yl-8-(trifluoromethyl)-4H-[1,2,4]triazolo[4,3-a][1,4]benzodiazepine]",288 nM
4,"Cn1cc(-c2nnc3n2-c2ccc(Cl)c(Cl)c2C(c2c(F)cccc2F)=NC3)cn1 [Example 28, 7,8-dichloro-6-(2,6-difluorophenyl)-1-(1-methylpyrazol-4-yl)-4H-[1,2,4]triazolo[4,3-a][1,4]benzodiazepine]",12.6 nM
5,"Fc1cccnc1C1=NCc2nncn2-c2ccc(Br)c(Cl)c21 [Example 29, 8-bromo-7-chloro-6-(3-fluoro-2-pyridyl)-4H-[1,2,4]triazolo[4,3-a][1,4]benzodiazepine]",66.2 nM
6,"Fc1cccc(F)c1C1=NCc2nncn2-c2ccc(I)c(Cl)c21 [Example 34, 7-chloro-6-(2,6-difluorophenyl)-8-iodo-4H-[1,2,4]triazolo[4,3-a][1,4]benzodiazepine]",5.6 nM
7,"Cl.NCc1nnc2n1-c1ccc(Br)c(Cl)c1C(c1c(F)cccc1F)=NC2 [Example 36, [8-bromo-7-chloro-6-(2,6-difluorophenyl)-4H-[1,2,4]triazolo[4,3-a][1,4]benzodiazepin-1-yl]methanamine hydrochloride]",11.9 nM
8,"Fc1cccc(F)c1C1=NCc2nnc(-c3cccnn3)n2-c2ccc(C(F)(F)F)c(Cl)c21 [Example 38, 7-chloro-6-(2,6-difluorophenyl)-1-pyridazin-3-yl-8-(trifluoromethyl)-4H-[1,2,4]triazolo[4,3-a][1,4]benzodiazepine]",28 nM
9,"Fc1cccc(F)c1C1=NCc2nnc(-c3cccnn3)n2-c2ccc(I)c(Cl)c21 [Example 39, 7-chloro-6-(2,6-difluorophenyl)-8-iodo-1-pyridazin-3-yl-4H-[1,2,4]triazolo[4,3-a][1,4]benzodiazepine]",4.7 nM
10,"Cc1nnc2n1-c1ccc(C(F)(F)F)c(Cl)c1C(c1c(F)cccc1F)=NC2 [Example 40, 7-chloro-6-(2,6-difluorophenyl)-1-methyl-8-(trifluoromethyl)-4H-[1,2,4]triazolo[4,3-a][1,4]benzodiazepine]",20.8 nM
11,"Cc1nnc2n1-c1ccc(I)c(Cl)c1C(c1c(F)cccc1F)=NC2 [Example 41, 7-chloro-6-(2,6-difluorophenyl)-8-iodo-1-methyl-4H-[1,2,4]triazolo[4,3-a][1,4]benzodiazepine]",4.8 nM
12,"Fc1cccc(F)c1C1=NCc2nnc(-c3cccnn3)n2-c2ccc(Br)c(Br)c21 [Example 42, 7,8-dibromo-6-(2,6-difluorophenyl)-1-pyridazin-3-yl-4H-[1,2,4]triazolo[4,3-a][1,4]benzodiazepine]",7.2 nM
13,"Fc1cccc(F)c1C1=NCc2nnc(-c3ccncn3)n2-c2ccc(Br)c(Br)c21 [Example 43, 7,8-dibromo-6-(2,6-difluorophenyl)-1-pyrimidin-4-yl-4H-[1,2,4]triazolo[4,3-a][1,4]benzodiazepine]",8.4 nM
14,"Clc1cccnc1C1=NCc2nnc(-c3ccncn3)n2-c2ccc(Br)c(Cl)c21 [Example 44, 8-bromo-7-chloro-6-(3-chloro-2-pyridyl)-1-pyrimidin-4-yl-4H-[1,2,4]triazolo[4,3-a][1,4]benzodiazepine]",11.5 nM
15,"Fc1cccnc1C1=NCc2nnc(-c3cccnn3)n2-c2ccc(Br)c(Cl)c21 [Example 45, 8-bromo-7-chloro-6-(3-fluoro-2-pyridyl)-1-pyridazin-3-yl-4H-[1,2,4]triazolo[4,3-a][1,4]benzodiazepine]",54.4 nM
16,"Fc1cccnc1C1=NCc2nnc(-c3ccncn3)n2-c2ccc(Br)c(Cl)c21 [Example 46, 8-bromo-7-chloro-6-(3-fluoro-2-pyridyl)-1-pyrimidin-4-yl-4H-[1,2,4]triazolo[4,3-a][1,4]benzodiazepine]",60.5 nM
17,"Clc1cccnc1C1=NCc2nnc(-c3cccnn3)n2-c2ccc(Br)c(Cl)c21 [Example 47, 8-bromo-7-chloro-6-(3-chloro-2-pyridyl)-1-pyridazin-3-yl-4H-[1,2,4]triazolo[4,3-a][1,4]benzodiazepine]",7 nM
18,"Cc1ccc2c(c1Cl)C(c1c(F)cccc1F)=NCc1nnc(-c3cccnn3)n1-2 [Example 48, 7-chloro-6-(2,6-difluorophenyl)-8-methyl-1-pyridazin-3-yl-4H-[1,2,4]triazolo[4,3-a][1,4]benzodiazepine]",20.8 nM
19,"Cc1ccc2c(c1Cl)C(c1c(F)cccc1F)=NCc1nnc(-c3ccncn3)n1-2 [Example 49, 7-chloro-6-(2,6-difluorophenyl)-8-methyl-1-pyrimidin-4-yl-4H-[1,2,4]triazolo[4,3-a][1,4]benzodiazepine]",40.5 nM
20,"Cc1nnc2n1-c1ccc(Br)c(Cl)c1C(c1c(F)cccc1Cl)=NC2 [Example 50, 8-bromo-7-chloro-6-(2-chloro-6-fluoro-phenyl)-1-methyl-4H-[1,2,4]triazolo[4,3-a][1,4]benzodiazepine]",8.9 nM
21,"Fc1cccnc1C1=NCc2nnc(-c3cccnn3)n2-c2ccc(Cl)c(Cl)c21 [Example 54, 7,8-dichloro-6-(3-fluoro-2-pyridyl)-1-pyridazin-3-yl-4H-[1,2,4]triazolo[4,3-a][1,4]benzodiazepine]",121 nM
22,"Fc1cccnc1C1=NCc2nnc(-c3ccncn3)n2-c2ccc(Cl)c(Cl)c21 [Example 55, 7,8-dichloro-6-(3-fluoro-2-pyridyl)-1-pyrimidin-4-yl-4H-[1,2,4]triazolo[4,3-a][1,4]benzodiazepine]",133 nM
23,"COc1ccc2c(c1Cl)C(c1c(F)cccc1F)=NCc1nnc(-c3cccnn3)n1-2 [Example 57, 7-chloro-6-(2,6-difluorophenyl)-8-methoxy-1-pyridazin-3-yl-4H-[1,2,4]triazolo[4,3-a][1,4]benzodiazepine]",170 nM
